Counter-ions that a name gives are not always drawn. Like-named read-outs stand apart in the source and are kept apart here.
Legend:
KDR = KDR (Homo sapiens, UniProt P35968); assay: KDR inhibition of metabolites; format: biochemical; conditions: metabolites of Compound A
[1] = tested on: VEGF-induced rat corneal angiogenesis; assay: VEGF-induced rat corneal angiogenesis assay; format: in vivo; conditions: for Average # of Vessels: 7 days
Method: (§1) Tables 2 through 6 below describe the results obtained in the rat corneal in vivo model of angiogenesis for (1) reference compound (free base) 1, (2) Compound A (free base), and (3) the hydrochloride salt of Compound A. A VEGF-induced rat corneal angiogenesis assay was performed using the following procedure: • In Life Aspects: Female CD rats weighing approximately 250 grams were randomized into one of six treatment groups. On the day of surgery the rats were temporarily anesthetized using isoflurane. A vertical incision was made on the midline of the cornea and a pocket was created to separate the connective tissue layers of the stroma. The distance between the apex of the pocket and the limbus was approximately 1.8 mm. A presoaked nylon filter disk was inserted to the apex of the pocket (in the case of the control treatment group, the disks were soaked in a buffer containing bovine serum albumin; in the remaining treatment groups, the disks were soaked in buffer containing bovine serum albumin plus human VEGF to induce angiogenesis). The different treatment groups were then dosed daily with either vehicle (Ora Plus™, a commercially available vehicle) or a designated amount of test compound formulated in vehicle. • Study Termination and Analysis: After seven days, the rats were euthanized and the implanted corneas photographed using a Nikon SV-3 Ophthalmic Slit Lamp. Numerical data were generated from the digital images using the Metamorph image analysis system (Universal Imaging). Three endpoints were analyzed on each corneal image: (1) disk placement distance from the limbus, (2) number of vessels intersecting a perpendicular line at the midpoint of the disk placement distance, and (3) blood vessel area, as determined by thresholding and automated pixel counting. Only the number of blood vessels is shown in the tables as this endpoint correlated well with the blood vessel area. • Statistical Analysis: Results were analyzed with the StatView statistical program using one-way ANOVA, followed by Fisher's least significant difference test. Data are presented as mean±SE and P<0.05 was considered significant. AUC and ED50 values were calculated using methods well known in the art.

[2] = Water absorption of the hydrous hydrochloride form; format: physicochemical; conditions: 90% relative humidity and 25° C.
Description: The hydrochloride salt is formed by preparing a solution of Compound A free base in ethanol and adding hydrochloric acid in slight molar excess with stirring and optional heat. Spontaneous salt formation occurred both with and without the application of heating and cooling. The hydrochloride salt is known to exist in at least one anhydrous form, which has been confirmed by single-crystal X-ray analysis, and at least one hydrous form. The anhydrous form of the hydrochloride salt is crystalline and decomposes near 230° C. when heated at a rate of 10° C./minute. The hydrous form of Compound A hydrochloride has been obtained by suspending the anhydrous hydrochloride material in water or in dilute aqueous solutions of hydrochloric acid. The hydrous material is crystalline, can freely absorb up to 4 molar equivalents of water at 90% relative humidity and 25° C., and appears to fully dehydrate by 150° C. and decompose near 170° C. when heated at a rate of 10° C./minute. Both the anhydrous and hydrous forms of Compound A hydrochloride have unique X-ray powder diffraction patterns, the major peaks of which are described below: […]

[3] = Exposure (AUC) in the rat corneal angiogenesis study; format: in vivo; conditions: female, CD, rat, in vivo
Method: as §1

[4] = Rat pharmacokinetic profile; conditions: in vivo
Description: (§2) Table 7 provides additional information about the pharmacokinetic profiles of reference compound 1 and Compound A. The data contained in this table was obtained using methods well known in the art.

Human Liver Microsome = assay: Human liver microsome clearance; format: in vitro ADME; conditions: human liver microsomes
Description: as §2

Rat Liver Microsome = assay: Rat liver microsome clearance; format: in vitro ADME; conditions: rat liver microsomes
Description: as §2

HUVEC = assay: VEGF induced proliferation, HUVEC cell-based assay; conditions: Homo sapiens

Sequence of KDR (P35968 20-1356, species assumed): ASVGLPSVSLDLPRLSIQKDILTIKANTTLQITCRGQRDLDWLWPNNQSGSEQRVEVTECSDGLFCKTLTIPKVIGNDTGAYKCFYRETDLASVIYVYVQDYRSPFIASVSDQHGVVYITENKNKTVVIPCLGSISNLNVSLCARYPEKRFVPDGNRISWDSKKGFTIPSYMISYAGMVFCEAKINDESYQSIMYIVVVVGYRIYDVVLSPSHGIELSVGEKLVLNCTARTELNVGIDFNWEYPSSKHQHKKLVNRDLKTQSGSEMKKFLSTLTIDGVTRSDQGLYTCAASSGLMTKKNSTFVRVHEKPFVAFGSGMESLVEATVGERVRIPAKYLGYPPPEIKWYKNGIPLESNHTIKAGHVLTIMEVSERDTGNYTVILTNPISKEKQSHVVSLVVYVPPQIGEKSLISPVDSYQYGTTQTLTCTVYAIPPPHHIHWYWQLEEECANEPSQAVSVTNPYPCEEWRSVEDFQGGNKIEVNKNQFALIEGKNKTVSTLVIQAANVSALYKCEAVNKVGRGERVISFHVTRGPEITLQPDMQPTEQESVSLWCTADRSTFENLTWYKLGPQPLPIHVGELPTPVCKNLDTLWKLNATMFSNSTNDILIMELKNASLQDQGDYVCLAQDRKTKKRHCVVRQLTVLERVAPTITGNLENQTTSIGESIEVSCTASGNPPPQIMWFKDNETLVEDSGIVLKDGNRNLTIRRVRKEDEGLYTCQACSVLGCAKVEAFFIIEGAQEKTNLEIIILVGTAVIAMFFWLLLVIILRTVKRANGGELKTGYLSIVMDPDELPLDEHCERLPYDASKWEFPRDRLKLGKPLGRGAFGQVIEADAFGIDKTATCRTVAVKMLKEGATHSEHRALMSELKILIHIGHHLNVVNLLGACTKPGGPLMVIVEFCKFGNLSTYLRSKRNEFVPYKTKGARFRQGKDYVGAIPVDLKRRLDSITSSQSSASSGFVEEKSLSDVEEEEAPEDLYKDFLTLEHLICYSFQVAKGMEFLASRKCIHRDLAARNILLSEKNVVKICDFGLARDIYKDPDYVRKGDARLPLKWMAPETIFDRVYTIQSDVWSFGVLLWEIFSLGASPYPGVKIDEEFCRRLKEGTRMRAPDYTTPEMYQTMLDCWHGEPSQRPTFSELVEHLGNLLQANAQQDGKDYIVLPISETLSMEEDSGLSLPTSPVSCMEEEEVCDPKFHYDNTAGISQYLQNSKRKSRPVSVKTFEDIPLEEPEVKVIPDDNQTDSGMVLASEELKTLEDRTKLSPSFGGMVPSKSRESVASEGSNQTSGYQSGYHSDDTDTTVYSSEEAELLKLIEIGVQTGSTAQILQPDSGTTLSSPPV

Q: Which IC50 (KDR) does the source give for `COc1cc2nccc(Oc3ccc4c(c3)OCCN4C(=O)Nc3cc(CO)on3)c2cc1OC` [7-(6,7-dimethoxyquinolin-4-yloxy)-N-(5-(hydroxymethyl)isoxazol-3-yl)-2,3-dihydrobenzo[b][1,4]oxazine-4-carboxamide hydrochloride] here?
A: 1.04 nM

Q: With `COc1cc2nccc(Oc3ccc4c(c3)OCCN4C(=O)Nc3cc(C)on3)c2cc1O` [7-(6-hydroxy-7-methoxyquinolin-4-yloxy)-N-(5-methylisoxazol-3-yl)-2,3-dihydrobenzo[b][1,4]oxazine-4-carboxamide] as the compound, how does the IC50 (KDR) read?
A: 1.68 nM

Q: With `COc1cc2c(Oc3ccc4c(c3)OCCN4C(=O)Nc3cc(C)on3)ccnc2cc1O` [7-(7-hydroxy-6-methoxyquinolin-4-yloxy)-N-(5-methylisoxazol-3-yl)-2,3-dihydrobenzo[b][1,4]oxazine-4-carboxamide] as the compound, how does the IC50 (KDR) read?
A: 777 nM

Q: With `COc1cc2nccc(Oc3ccc4c(c3)OCCN4C(=O)Nc3cc(C)on3)c2cc1OC` [Compound A (HCl Salt)] as the compound, how does the ED50 ([1]; Rattus norvegicus, Table 4, HCl salt Run # 1, number of vessels, read-out: ED50) read?
A: 0.04 mg/kg

Q: What about the ED50 ([1]; Rattus norvegicus, Table 5, HCl salt Run #2, number of vessels, read-out: ED50) of the same compound?
A: 0.15 mg/kg

Q: And the “Average # of Vessels” value ([1]; Table 4, HCl salt Run # 1, VEGF disc + 0.03 mg/kg daily)?
A: 15.3

Q: What about the “Average # of Vessels” value ([1]; Table 4, HCl salt Run # 1, VEGF disc + 0.1 mg/kg daily) of the same compound?
A: 9.3

Q: What about the “Average # of Vessels” value ([1]; Table 4, HCl salt Run # 1, VEGF disc + 0.3 mg/kg daily) of the same compound?
A: 4.3

Q: What about the “Average # of Vessels” value ([1]; Table 4, HCl salt Run # 1, VEGF disc + 1.0 mg/kg daily) of the same compound?
A: 0.4

Q: And the “Average # of Vessels” value ([1]; Table 5, HCl salt Run #2, VEGF disc + 0.01 mg/kg daily)?
A: 28.9

Q: What about the “Average # of Vessels” value ([1]; Table 5, HCl salt Run #2, VEGF disc + 0.03 mg/kg daily) of the same compound?
A: 25.5

Q: And the “Average # of Vessels” value ([1]; Table 5, HCl salt Run #2, VEGF disc + 0.1 mg/kg daily)?
A: 18.0

Q: And the “Average # of Vessels” value ([1]; Table 5, HCl salt Run #2, VEGF disc + 0.3 mg/kg daily)?
A: 7.3

Q: And the “Average # of Vessels” value ([1]; Table 6, HCl salt Run #3, VEGF disc + 0.01 mg/kg daily)?
A: 28.4

Q: And the “Average # of Vessels” value ([1]; Table 6, HCl salt Run #3, VEGF disc + 0.03 mg/kg daily)?
A: 32.0

Q: And the “Average # of Vessels” value ([1]; Table 6, HCl salt Run #3, VEGF disc + 0.1 mg/kg daily)?
A: 15.4

Q: What about the “Average # of Vessels” value ([1]; Table 6, HCl salt Run #3, VEGF disc + 0.3 mg/kg daily) of the same compound?
A: 4.8

Q: What about the water absorbed [2] of the same compound?
A: up to 4 molar equivalents of water

Q: What about the AUC ([3]; 0.01 mg/kg, Table 5, HCl salt Run #2, 0.01 mg/kg daily) of the same compound?
A: 95.8 ng·h/mL

Q: And the AUC ([3]; 0.03 mg/kg, Table 4, HCl salt Run # 1, 0.03 mg/kg daily)?
A: 162 ng·h/mL

Q: And the AUC ([3]; 0.03 mg/kg, Table 5, HCl salt Run #2, 0.03 mg/kg daily)?
A: 272 ng·h/mL

Q: And the AUC ([3]; 0.1 mg/kg, Table 4, HCl salt Run # 1, 0.1 mg/kg daily)?
A: 460 ng·h/mL

Q: What about the AUC ([3]; 0.1 mg/kg, Table 5, HCl salt Run #2, 0.1 mg/kg daily) of the same compound?
A: 954 ng·h/mL

Q: What about the AUC ([3]; 0.3 mg/kg, Table 4, HCl salt Run # 1, 0.3 mg/kg daily) of the same compound?
A: 1190 ng·h/mL

Q: What about the AUC ([3]; 0.3 mg/kg, Table 5, HCl salt Run #2, 0.3 mg/kg daily) of the same compound?
A: 3900 ng·h/mL

Q: And the AUC ([3]; 1 mg/kg, Table 4, HCl salt Run # 1, 1.0 mg/kg daily)?
A: 3640 ng·h/mL

Q: And the AUC ([3]; oral, 0.01 mg/kg, Table 6, HCl salt Run #3, 0.01 mg/kg daily)?
A: 21.8 ng·h/mL

Q: What about the AUC ([3]; oral, 0.03 mg/kg, Table 6, HCl salt Run #3, 0.03 mg/kg daily) of the same compound?
A: 80.2 ng·h/mL

Q: And the AUC ([3]; oral, 0.1 mg/kg, Table 6, HCl salt Run #3, 0.1 mg/kg daily)?
A: 322 ng·h/mL

Q: And the AUC ([3]; oral, 0.3 mg/kg, Table 6, HCl salt Run #3, 0.3 mg/kg daily)?
A: 677 ng·h/mL

Q: With `COc1cc2c(Oc3ccc4c(c3)OCCN4C(=O)Nc3cc(C)on3)cc[n+]([O-])c2cc1OC` [Compound A N-oxide] as the compound, how does the IC50 (KDR) read?
A: 5000 nM

Q: For `COc1cc2nccc(Oc3ccc4c(c3)OCCN4C(=O)Nc3ccon3)c2cc1OC` [Reference Compound 1, reference compound], which ED50 ([1]; Rattus norvegicus, Table 2, free base, number of vessels, read-out: ED50) is on record?
A: > 0.3 mg/kg

Q: And the “Average # of Vessels” value ([1]; Table 2, free base, VEGF disc + 0.01 mg/kg daily)?
A: 22.0

Q: What about the “Average # of Vessels” value ([1]; Table 2, free base, VEGF disc + 0.03 mg/kg daily) of the same compound?
A: 25.4

Q: What about the “Average # of Vessels” value ([1]; Table 2, free base, VEGF disc + 0.1 mg/kg daily) of the same compound?
A: 19.3

Q: What about the “Average # of Vessels” value ([1]; Table 2, free base, VEGF disc + 0.3 mg/kg daily) of the same compound?
A: 15.9

Q: What about the ED50 ([1]; free base, review of Tables 2 and 3) of the same compound?
A: > 0.3 mpk

Q: And the clearance ([4]; intravenous)?
A: 13.3 mL/min/kg

Q: What about the Vd ([4]; intravenous, read-out: Rat Volume of Distribution) of the same compound?
A: 1 L/kg

Q: What about the half-life ([4]; iv, I.V., read-out: Rat I.V. T1/2 (converted)) of the same compound?
A: 4.73 h

Q: What about the bioavailability ([4]; po, 2 mg/kg, P.O., 2 mpk, read-out: Rat P.O. (2 mpk) % F) of the same compound?
A: 67%

Q: And the AUC(0-inf) ([4]; po, 2 mg/kg, P.O., 2 mpk, read-out: Rat P.O. (2 mpk) AUC0-inf)?
A: 1710 ng·h/mL

Q: And the AUC(0-t) ([4]; po, 2 mg/kg, P.O., 2 mpk, read-out: Rat P.O. (2 mpk) AUC0-t)?
A: 1700 ng·h/mL

Q: What about the half-life ([4]; po, 2 mpk, P.O., read-out: Rat P.O. T1/2 (converted)) of the same compound?
A: 2.4 h

Q: And the AUC ([3]; oral, 0.03 mg/kg, Table 2, free base, 0.03 mg/kg daily)?
A: 22.5 ng·h/mL

Q: And the AUC ([3]; oral, 0.1 mg/kg, Table 2, free base, 0.1 mg/kg daily)?
A: 68.5 ng·h/mL

Q: What about the AUC ([3]; oral, 0.3 mg/kg, Table 2, free base, 0.3 mg/kg daily) of the same compound?
A: 205 ng·h/mL

Q: And the “Human Liver Microsome” value (Human Liver Microsome)?
A: 29 µL/min/mg

Q: And the “Rat Liver Microsome” value (Rat Liver Microsome)?
A: 65 µL/min/mg

Q: What about the IC50 (HUVEC) of the same compound?
A: 7 nM

From US7795254B2, “Benzomorpholine derivatives and methods of use” (Amgen Inc., priority 2007, dated 2010)
